{
  "source": "patent US20220268782A1",
  "about": "“METHODS FOR PREDICTING AND TREATING CARDIAC DYSFUNCTION” (INSERM (INSTITUT NATIONAL DE LA SANTÉ EAT DE LA RECHERCHE …, priority 2019, published 2022)",
  "test_system": "C2C12 myoblasts",
  "assay": "PA catabolism and Nrf2-antioxidant pathway in C2C12 cells (Pah, tyrosine, 2-SC)",
  "assay_type": "cell-based",
  "details": "data not shown",
  "procedure": "Cells were washed briefly with ice-cold 1×PBS, scraped in 400 μL T-PER lysis buffer (ThermoFisher) supplemented with 0.1 mM phenylmethylsulphonyl fluoride (PMSF) and protease/phosphatase inhibitor cocktail tablet (ThermoFisher). Pulverised tissue samples (20-30 mg) were lysed in the same buffer accelerated by sonication and passing through a 21 G needle. To pellet any debris, lysates were centrifuged at 10,000 g for 10 minutes at 4° C., with the supernatant transferred to fresh tubes. Protein concentrations were determined with Bradford assay (Biorad) and lysates were diluted to equal concentration with lysis buffer. […]\nC2C12 (ATCC® CRL-1772™) myoblasts maintained in DMEM supplemented with L-glutamine (2 mM), penicillin/streptomycin (1%) and 5% fetal bovine serum (FBS) were seeded either at a density of 5×10^4 cells (<50%) per well in 24-well plates or 10^4 cells in 4-well chamber slides. […] Cells were analysed for oxidative stress with MitoSOX™ (mitochondrial superoxide; 5 μM, ThermoFisher Scientific), CellROX™ (cytosolic superoxide; 5 μM, ThermoFisher Scientific), gene or protein expression, or various metabolites (see below).\nLevels of reduced glutathione (GSH; ThermoFisher), phenylalanine (BioVision) and tyrosine (BioVision) were determined from cells or plasma, with respective agents/kits following the manufacturer's recommendations. […]",
  "data": [
    {"smiles": "CC(O)C(O)C1CNc2nc(N)[nH]c(=O)c2N1", "note": "(centres unmarked) [BH4, 2-amino-6-(1,2-dihydroxypropyl)-5,6,7,8-tetrahydro-3H-pteridin-4-one]", "values": [
      {"measurement": "succination-sensitive Nrf2-antioxidant pathway", "setting": "BH4-dependent succination", "result": "activation"},
      {"measurement": "PA catabolism: cellular levels of Pah, tyrosine and 2-succinylcysteine (2-SC)", "result": "increased"}
    ]}
  ]
}
